According to ChEMBL document CHEMBL5104093, “A comprehensive review on β-lapachone: Mechanisms, structural modifications, and therapeutic potentials” (Eur J Med Chem, 2021):
Values after ≈ are worked out from the molar mass of the structure shown. One block for each compound: values may come before it.

Key:
[1] = tested on: NCI-H460; assay: Cytotoxicity against human NCI-H460 cells assessed as reduction in cell viability incubated for 72 hrs by MTT assay; type: functional, cell-based; conditions: NCI-H460, 72 h
[2] = tested on: PC-3; assay: Cytotoxicity against human PC-3 cells assessed as reduction in cell viability incubated for 72 hrs by MTT assay; type: functional, cell-based; conditions: PC-3, 72 h
[3] = tested on: Enterococcus faecalis; assay: Antibacterial activity against Enterococcus faecalis clinical isolates assessed as bacterial growth inhibition by broth macrodilution method; type: functional
[4] = tested on: HCT-8; assay: Cytotoxicity against human HCT-8 cells assessed as reduction in cell viability incubated for 72 hrs by MTT assay; type: functional, cell-based; conditions: HCT-8, 72 h
[5] = tested on: MDA-MB-435; assay: Cytotoxicity against human MDA-MB-435 cells assessed as reduction in cell viability incubated for 72 hrs by MTT assay; type: functional, cell-based; conditions: MDA-MB-435, 72 h
[6] = tested on: SF-295; assay: Cytotoxicity against human SF-295 cells assessed as reduction in cell viability incubated for 72 hrs by MTT assay; type: functional, cell-based; conditions: SF-295, 72 h
[7] = tested on: B16; assay: Cytotoxicity against mouse B16 cells assessed as reduction in cell viability incubated for 72 hrs by MTT assay; type: functional, cell-based; conditions: B16, 72 h
[8] = tested on: HL-60; assay: Cytotoxicity against human HL-60 cells assessed as reduction in cell viability incubated for 72 hrs by MTT assay; type: functional, cell-based; conditions: HL-60, 72 h
[9] = tested on: MDA-MB-231; assay: Cytotoxicity against human MDA-MB-231 cells assessed as reduction in cell viability incubated for 72 hrs by MTT assay; type: functional, cell-based; conditions: MDA-MB-231, 72 h
[10] = tested on: OVCAR-8; assay: Cytotoxicity against human OVCAR-8 cells assessed as reduction in cell viability incubated for 72 hrs by MTT assay; type: functional, cell-based; conditions: OVCAR-8, 72 h
[11] = tested on: MX1; assay: Cytotoxicity against human MX1 cells assessed as reduction in cell viability incubated for 72 hrs by MTT assay; type: functional, cell-based; conditions: MX1, 72 h
[12] = tested on: COLO 205; assay: Cytotoxicity against human COLO 205 cells assessed as reduction in cell viability incubated for 72 hrs by MTT assay; type: functional, cell-based; conditions: COLO 205, 72 h
[13] = tested on: K562; assay: Cytotoxicity against human K562 cells assessed as reduction in cell viability incubated for 72 hrs by MTT assay; type: functional, cell-based; conditions: K562, 72 h
[14] = tested on: CCRF-CEM; assay: Cytotoxicity against human CEM cells assessed as reduction in cell viability incubated for 72 hrs by MTT assay; type: functional, cell-based
[15] = tested on: UACC-62; assay: Cytotoxicity against human UACC-62 cells assessed as reduction in cell viability incubated for 72 hrs by MTT assay; type: functional, cell-based; conditions: UACC-62, 72 h
[16] = tested on: NCI-H358; assay: Cytotoxicity against human NCI-H358 cells assessed as reduction in cell viability incubated for 72 hrs by MTT assay; type: functional, cell-based; conditions: NCI-H358, 72 h
[17] = tested on: DU-145; assay: Cytotoxicity against human DU-145 cells assessed as reduction in cell viability incubated for 72 hrs by MTT assay; type: functional, cell-based; conditions: DU-145, 72 h
[18] = tested on: SW-620; assay: Cytotoxicity against human SW-620 cells assessed as reduction in cell viability incubated for 72 hrs by MTT assay; type: functional, cell-based; conditions: SW-620, 72 h
[19] = tested on: MCF7; assay: Cytotoxicity against human MCF7 cells assessed as reduction in cell viability incubated for 72 hrs by MTT assay; type: functional, cell-based; conditions: MCF7, 72 h
[20] = tested on: Hs-578T; assay: Cytotoxicity against human Hs-578T cells assessed as reduction in cell viability incubated for 72 hrs by MTT assay; type: functional, cell-based
[21] = tested on: HCT-15; assay: Cytotoxicity against human HCT-15 cells assessed as reduction in cell viability incubated for 72 hrs by MTT assay; type: functional, cell-based; conditions: HCT-15, 72 h
[22] = tested on: HL-60; assay: Cytotoxicity against human HL-60 cells assessed as reduction in cell viability incubated for 72 hrs by alamar blue assay; type: functional, cell-based; conditions: HL-60, 72 h
[23] = tested on: MOLT-4; assay: Cytotoxicity against human MOLT-4 cells assessed as reduction in cell viability incubated for 72 hrs by MTT assay; type: functional, cell-based; conditions: MOLT-4, 72 h
[24] = tested on: Staphylococcus aureus; assay: Antibacterial activity against Methicillin-resistant Staphylococcus aureus ATCC 33591 assessed as bacterial growth inhibition incubated for 24 hrs by Mueller-Hinton broth based assay; type: functional
[25] = tested on: Staphylococcus aureus; assay: Antibacterial activity against Methicillin-resistant Staphylococcus aureus ATCC 29213 assessed as bacterial growth inhibition incubated for 24 hrs by Mueller-Hinton broth based assay; type: functional
[26] = Cytotoxicity against African green monkey BSC40 cells assessed as viable cells incubated for 24 hrs by Neutral red dye based spectrophotometer analysis; type: toxicity, cell-based; conditions: chlorocebus aethiops, bsc40, 24 h
[27] = tested on: Staphylococcus epidermidis; assay: Antibacterial activity against Methicillin-resistant Staphylococcus epidermidis clinical isolates assessed as bacterial growth inhibition incubated for 24 hrs by Mueller-Hinton broth based assay; type: functional
[28] = tested on: Staphylococcus haemolyticus; assay: Antibacterial activity against Methicillin-resistant Staphylococcus haemolyticus clinical isolates assessed as bacterial growth inhibition incubated for 24 hrs by Mueller-Hinton broth based assay; type: functional
[29] = tested on: HepG2; assay: Cytotoxicity against human HepG2 cells assessed as reduction in cell viability incubated for 48 hrs by MTT assay; type: functional, cell-based; conditions: HepG2, 48 h
[30] = tested on: HCT-116; assay: Cytotoxicity against human HCT-116 cells assessed as reduction in cell viability incubated for 48 hrs by MTT assay; type: functional, cell-based; conditions: HCT-116, 48 h
[31] = tested on: HCT-116; assay: Cytotoxicity against human HCT-116 cells assessed as reduction in cell viability incubated for 72 hrs by MTT assay; type: functional, cell-based; conditions: HCT-116, 72 h
[32] = tested on: B16-F10; assay: Cytotoxicity against mouse B16-F10 cells assessed as reduction in cell viability incubated for 72 hrs by MTT assay; type: functional, cell-based; conditions: B16-F10, 72 h
[33] = tested on: SNB-19; assay: Cytotoxicity against human SNB-19 cells assessed as reduction in cell viability incubated for 72 hrs by MTT assay; type: functional, cell-based; conditions: SNB-19, 72 h
[34] = tested on: Trypanosoma cruzi; assay: Antitrypanosomal activity against bloodstream form of Trypanosoma cruzi Y trypomastigotes infected in Swiss Webster mouse assessed as reduction in viable parasite in blood incubated for 24 hrs by Neubauer counting chamber based light microscopic analysis; type: functional, organism-based
[35] = Cytotoxicity against mouse L929 cells assessed as reduction in cell viability incubated for 72 hrs by MTT assay; type: toxicity, cell-based
[36] = tested on: Sporothrix schenckii; assay: Antifungal activity against Sporothrix schenckii assessed as fungal growth inhibition incubated for 48 hrs by CLSI-based broth microdilution assay; type: functional
[37] = tested on: Sporothrix; assay: Antifungal activity against Sporothrix brasiliensis assessed as fungal growth inhibition incubated for 48 hrs by CLSI-based broth microdilution assay; type: functional
[38] = Elimination half life in human at 1.5 mg/kg, iv; type: ADME, organism-based; conditions: in vivo, read-out: beta t1/2 (converted)
[39] = tested on: Trypanosoma cruzi; assay: Antitrypanosomal activity against bloodstream form of Trypanosoma cruzi Y trypomastigotes infected in albino mouse assessed as reduction in viable parasite in blood incubated for 24 hrs by Neubauer counting chamber method; type: functional, organism-based
[40] = Selectivity index, ratio of IC50 for human PBMC cells to IC50 for human HL-60 cells; type: toxicity; conditions: PBMC cells versus HL-60 cells, read-out: Ratio IC50
[41] = Volume of distribution at steady state in human; type: ADME
[42] = Oral bioavailability in human at 40 mg/kg; type: ADME, organism-based; conditions: in vivo
[43] = Clearance in human; type: ADME

SMILES: CC1(C)OC2=C(C(=O)C(=O)c3ccccc32)[C@H](n2cc(C[Se]c3ccc(F)cc3)nn2)[C@H]1Br
- IC50 [1]: 1320 nM
- IC50 [2]: 1060 nM

SMILES: CC1(C)OC2=C(C(=O)C(=O)c3ccccc32)C1n1cc(C2(O)CCCCC2)nn1 (configuration not stated)
- MIC [3]: 16 µg/mL (≈ 40.7 µM)
- IC50 [4]: 430 nM
- IC50 [2]: 430 nM
- IC50 [5]: 430 nM
- IC50 [6]: 430 nM
- IC50 [7]: 430 nM
- IC50 [8]: 430 nM

SMILES: CC1(C)OC2=C(C(=O)C(=O)c3ccccc32)C1n1cc(-c2ccc(Nc3ccccn3)c3nsnc23)nn1 (configuration not stated)
- IC50 [9]: 480 nM
- IC50 [4]: 480 nM
- IC50 [10]: 480 nM
- IC50 [2]: 480 nM
- IC50 [11]: 480 nM
- IC50 [5]: 480 nM
- IC50 [12]: 480 nM
- IC50 [6]: 480 nM
- IC50 [13]: 480 nM
- IC50 [14]: 480 nM
- IC50 [15]: 480 nM
- IC50 [16]: 480 nM
- IC50 [17]: 480 nM
- IC50 [18]: 480 nM
- IC50 [19]: 480 nM
- IC50 [20]: 480 nM
- IC50 [21]: 480 nM
- IC50 [22]: 480 nM
- IC50 [23]: 480 nM

SMILES: CC1(C)OC2=C(C(=O)C(=O)c3ccccc32)C1O (configuration not stated)
- MBC [24]: > 512 µg/mL
- MIC [24]: 4 µg/mL (≈ 16.4 µM)
- MBC [25]: > 512 µg/mL
- MIC [25]: 4 µg/mL (≈ 16.4 µM)
- MTC [26]: 2 µg/mL
- MBC [27]: > 512 µg/mL
- MIC [27]: 4 µg/mL (≈ 16.4 µM)
- MBC [28]: > 512 µg/mL
- MIC [28]: 4 µg/mL (≈ 16.4 µM)

SMILES: COc1cc(OC)cc(C2C3=C(N=C4N=NNN42)c2ccccc2C(=O)C3=O)c1 (configuration not stated)
- IC50 [29]: 1180 nM
- IC50 [30]: 220 nM

SMILES: O=C1C(=O)c2ccccc2C2=C1CC(C[Se]c1cccs1)O2 (configuration not stated)
- IC50 [31]: 1060 nM
- IC50 [32]: 1060 nM
- IC50 [2]: 1060 nM
- IC50 at 72 h [35]: 1060 nM
- IC50 [33]: 1060 nM
- IC50 [19]: 1060 nM

Further lines, with some results ahead:

- MIC [3]: 8 µg/mL (≈ 21.5 µM)
SMILES: CC1(C)OC2=C(C(=O)C(=O)c3ccccc32)C1n1cc(-c2ccccc2)nn1 (configuration not stated)
- IC50 [4]: < 1210 nM
- IC50 [2]: < 1210 nM
- IC50 [5]: < 1210 nM
- IC50 [6]: < 1210 nM
- IC50 [7]: < 1210 nM
- IC50 [8]: 1210 nM

- IC50 [34]: 38.3 µM
SMILES: CC1(C)OC2=C(CC1[Se]c1ccc(F)cc1)C(=O)C(=O)c1ccccc12 (configuration not stated)
- IC50 [31]: 950 nM
- IC50 [32]: 950 nM
- IC50 [2]: 950 nM
- IC50 [33]: 950 nM
- IC50 [19]: 950 nM

- MIC [3]: 12 µg/mL (≈ 37.1 µM)
SMILES: O=C(N[C@H](CO)[C@H](O)c1ccc([N+](=O)[O-])cc1)C(Cl)Cl [CHLORAMPHENICOL]

- MIC [36]: 0.125 µM (≈ 0.0882 µg/mL)
- MIC [37]: 0.125 µM (≈ 0.0882 µg/mL)
SMILES: CCC(C)n1ncn(-c2ccc(N3CCN(c4ccc(OCC5COC(Cn6cncn6)(c6ccc(Cl)cc6Cl)O5)cc4)CC3)cc2)c1=O (configuration not stated) [ITRACONAZOLE]

- half-life [38]: 147 min
- IC50 [39]: 392 µM
- Vdss [41]: 490 L/m2
- bioavailability [42]: 15.5%
- CL [43]: 114 L/hr/m2
SMILES: CC1(C)CCC2=C(O1)c1ccccc1C(=O)C2=O [LAPACHONE]
- selectivity ratio [40]: 827
